Measured values reported in patent publication US10093683B2, “Factor XIa inhibitors” (Merck Sharp & Dohme Corp., priority 2014, dated 2018).

Columns and labels:
[1] = biological target: Human plasma kallikrein (Homo sapiens (Human), UniProt P03952); assay: Kallikrein Assay; type: biochemical; conditions: purified Human plasma kallikrein 0.5 nM, Acetyl-K-P-R-AFC, pH 7.4; Ki from IC50 by Cheng Prusoff
Procedure, shortened: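 Purified human plasma kallikrein (0.5 nM final) with Acetyl-K-P-R-AFC substrate ([…]) in 50 mM HEPES pH 7.4, 150 mM NaCl, 5 mM CaCl2, 0.1% PEG 8000, after enzyme-inhibitor equilibration. Fluorescence (405 ex/510 em) under linear conditions; IC50 from four-parameter fit, converted to Ki by Cheng-Prusoff.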

[2] = biological target: human Factor XIa (Homo sapiens (Human), UniProt P03951); assay: Factor XIa Assay; type: biochemical; conditions: read-out: FXIa Ki
Procedure, shortened: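 Purified human FXIa (40 pM final) hydrolysing fluorogenic Z-Gly-Pro-Arg-AFC (100 μM) in 50 mM HEPES pH 7.4, 150 mM NaCl, 5 mM CaCl2, 0.1% PEG 8000, at room temperature or 37° C. Initial velocities measured after enzyme–inhibitor equilibration; Ki from Vo/Vi versus [I], assuming competitive inhibition.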

Human plasma kallikrein, sequence (P03952 391-638): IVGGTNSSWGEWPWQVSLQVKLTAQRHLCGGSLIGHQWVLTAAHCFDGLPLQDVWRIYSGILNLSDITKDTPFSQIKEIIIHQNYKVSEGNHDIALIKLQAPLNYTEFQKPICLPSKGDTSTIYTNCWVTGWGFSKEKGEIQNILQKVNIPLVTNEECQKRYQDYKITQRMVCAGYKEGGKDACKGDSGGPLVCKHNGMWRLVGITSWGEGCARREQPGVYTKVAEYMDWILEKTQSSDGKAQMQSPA
Human plasma kallikrein, sequence (P03952 20-390 partner): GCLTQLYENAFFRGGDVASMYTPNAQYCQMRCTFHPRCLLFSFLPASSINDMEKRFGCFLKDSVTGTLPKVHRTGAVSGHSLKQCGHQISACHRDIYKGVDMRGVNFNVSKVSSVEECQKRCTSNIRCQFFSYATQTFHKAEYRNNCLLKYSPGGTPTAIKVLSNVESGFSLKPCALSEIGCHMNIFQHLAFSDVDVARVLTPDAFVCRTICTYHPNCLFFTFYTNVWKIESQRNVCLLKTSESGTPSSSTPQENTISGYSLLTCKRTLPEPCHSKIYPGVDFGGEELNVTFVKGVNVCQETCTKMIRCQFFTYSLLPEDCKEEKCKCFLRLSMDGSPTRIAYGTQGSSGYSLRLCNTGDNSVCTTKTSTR
human Factor XIa, sequence (P03951 388-625): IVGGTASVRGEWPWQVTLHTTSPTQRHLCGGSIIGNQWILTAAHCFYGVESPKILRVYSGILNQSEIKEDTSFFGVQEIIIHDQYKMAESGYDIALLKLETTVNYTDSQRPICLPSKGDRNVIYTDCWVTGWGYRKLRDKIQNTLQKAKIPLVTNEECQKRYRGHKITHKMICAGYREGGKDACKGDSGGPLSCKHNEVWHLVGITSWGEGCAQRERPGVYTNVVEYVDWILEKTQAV
human Factor XIa, sequence (P03951 19-387 partner): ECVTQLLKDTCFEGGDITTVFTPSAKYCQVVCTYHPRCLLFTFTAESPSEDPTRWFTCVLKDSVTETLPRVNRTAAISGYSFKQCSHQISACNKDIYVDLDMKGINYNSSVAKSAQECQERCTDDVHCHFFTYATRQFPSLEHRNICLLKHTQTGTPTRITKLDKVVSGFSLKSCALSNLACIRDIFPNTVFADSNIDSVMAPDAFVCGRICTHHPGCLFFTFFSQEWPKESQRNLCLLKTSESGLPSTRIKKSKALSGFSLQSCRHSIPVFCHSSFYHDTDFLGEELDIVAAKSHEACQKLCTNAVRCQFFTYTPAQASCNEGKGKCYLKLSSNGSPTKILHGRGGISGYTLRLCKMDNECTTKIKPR

With `Cc1ncc(C(=O)N[C@@H](Cc2ccccc2)C(=O)N2CCC3(C2)OC(=O)Nc2ccc(Cl)cc23)cn1` (stereo partly drawn) [Example 144] the Ki [1] was 7.72 nM and the Ki [2] was 5000 nM.
Compound `COCCOC(=O)Nc1ccc(C(=O)N[C@@H](Cc2ccccc2)C(=O)N2CCC3(C2)OC(=O)Nc2ccc(Cl)cc23)cc1` (stereo partly drawn) [Example 164, 2-methoxyethyl (4-(((2S)-1-(6-chloro-2-oxo-1,2-dihydrospiro[benzo[d][1,3]oxazine-4,3′-pyrrolidin]-1′-yl)-1-oxo-3-phenylpropan-2-yl)carbamoyl)phenyl)carbamate] has a Ki [1] of 36 nM and a Ki [2] of 9.4 nM.
Compound `O=C1CSc2cc(C(=O)N[C@@H](Cc3ccccc3)C(=O)N3CCC4(C3)OC(=O)Nc3ccc(Cl)cc34)ccc2N1` (stereo partly drawn) [Example 165] has a Ki [1] of 27.5 nM and a Ki [2] of 14.6 nM.
Work on `O=C1COc2cc(C(=O)N[C@@H](Cc3ccccc3)C(=O)N3CCC4(C3)OC(=O)Nc3ccc(Cl)cc34)ccc2N1` (stereo partly drawn) [Example 171] yielded a Ki [1] of 58 nM and a Ki [2] of 21.8 nM.
`Nc1nc2ccc(C(=O)N[C@@H](Cc3ccccc3)C(=O)N3CCC4(C3)OC(=O)Nc3ccc(Cl)cc34)cc2s1` (stereo partly drawn) [Example 181] was tested, and the Ki [1] was 50.7 nM and the Ki [2] was 18.7 nM.
Compound `O=C1Nc2ccc(Cl)cc2C2(CCN(C(=O)[C@H](Cc3ccccc3)NC(=O)c3ccc(Nc4ncc[nH]4)cc3)C2)O1` (stereo partly drawn) [Example 188] has a Ki [1] of 155 nM and a Ki [2] of 42 nM.
Compound `CNC(=O)Nc1ccc(C(=O)N[C@@H](Cc2ccccc2)C(=O)N2CCC3(C2)OC(=O)Nc2ccc(Cl)cc23)cc1` (stereo partly drawn) [Example 189, N-((2S)-1-(6-chloro-2-oxo-1,2-dihydrospiro[benzo[d][1,3]oxazine-4,3′-pyrrolidin]-1′-yl)-1-oxo-3-phenylpropan-2-yl)-4-(3-methylureido)benzamide] has a Ki [1] of 51.3 nM and a Ki [2] of 17.6 nM.
`O=C(Nc1ccc(C(=O)N[C@@H](Cc2ccccc2)C(=O)N2CCC3(C2)OC(=O)Nc2ccc(Cl)cc23)cc1)OCCN1CCOCC1` (stereo partly drawn) [Example 191, 2-morpholinoethyl (4-(((2S)-1-(6-chloro-2-oxo-1,2-dihydrospiro[benzo[d][1,3]oxazine-4,3′-pyrrolidin]-1′-yl)-1-oxo-3-phenylpropan-2-yl)carbamoyl)phenyl)carbamate] showed a Ki [1] of 123 nM and a Ki [2] of 33.5 nM.
In the case of `O=C(Nc1ccc(C(=O)N[C@@H](Cc2ccccc2)C(=O)N2CCC3(C2)OC(=O)Nc2ccc(Cl)cc23)cc1)OC[C@@H]1CCCO1` (stereo partly drawn) [Example 194, ((S)-tetrahydrofuran-2-yl)methyl (4-(((2S)-1-(6-chloro-2-oxo-1,2-dihydrospiro[benzo[d][1,3]oxazine-4,3′-pyrrolidin]-1′-yl)-1-oxo-3-phenylpropan-2-yl)carbamoyl)phenyl)carbamate], the Ki [1] is reported as 30.9 nM and the Ki [2] is reported as 5.48 nM.
`Nc1n[nH]c2cc(C(=O)N[C@@H](Cc3ccccc3)C(=O)N3CC[C@@]4(C3)OC(=O)Nc3ccc(Cl)c(F)c34)ccc12` [Example 195] showed a Ki [1] of 1.9 nM and a Ki [2] of 1 nM.
With `Nc1n[nH]c2cc(C(=O)N[C@@H](Cc3ccccc3)C(=O)N3CCC[C@@]4(C3)OC(=O)Nc3ccc(Cl)cc34)ccc12` [Example 197] the Ki [1] was 1.3 nM and the Ki [2] was 0.62 nM.
With `O=C1Nc2ccc(Cl)cc2[C@@]2(CCN(C(=O)[C@H](Cc3ccccc3)NC(=O)c3ccc4[nH]c(=O)c(=O)[nH]c4c3)C2)O1` [Example 198] the Ki [1] was 30.1 nM and the Ki [2] was 2.77 nM.
Work on `O=C1Nc2ccc(Cl)cc2[C@@]2(CCCN(C(=O)[C@H](Cc3ccccc3)NC(=O)c3ccc4[nH]c(=O)cc(O)c4c3)C2)O1` [Example 199] yielded a Ki [1] of 0.6 nM and a Ki [2] of 0.6 nM.
In the case of `Nc1n[nH]c2cc(C(=O)N[C@@H](CC3CC3)C(=O)N3CCC[C@@]4(C3)OC(=O)Nc3ccc(Cl)cc34)ccc12` [Example 200], the Ki [1] is reported as 1 nM and the Ki [2] is reported as 4.4 nM.
`O=C1Nc2ccc(Cl)cc2[C@@]2(CCCN(C(=O)[C@H](Cc3ccccc3)NC(=O)c3ccc(C(=O)O)s3)C2)O1` [Example 203] was tested, and the Ki [1] was 2.1 nM and the Ki [2] was 10.3 nM.
Work on `CNc1cc(C(=O)N[C@@H](Cc2ccccc2)C(=O)N2CCC[C@@]3(C2)OC(=O)Nc2ccc(Cl)cc23)ccn1` [Example 206] yielded a Ki [1] of 1.7 nM and a Ki [2] of 14.5 nM.
`Nc1ccc(C(=O)N[C@@H](Cc2ccc(F)cc2)C(=O)N2CCC[C@@]3(C2)OC(=O)Nc2ccc(Cl)cc23)cc1C(=O)O` [Example 208, 2-amino-5-(((S)-1-((R)-6-chloro-2-oxo-1,2-dihydrospiro[benzo[d][1,3]oxazine-4,3′-piperidin]-1′-yl)-3-(4-fluorophenyl)-1-oxopropan-2-yl)carbamoyl)benzoic acid] was tested, and the Ki [1] was 1.95 nM and the Ki [2] was 1.63 nM.
With `O=C1Nc2ccc(Cl)c(F)c2[C@@]2(CCCN(C(=O)[C@H](Cc3ccccc3)NC(=O)c3ccc4[nH]c(=O)cc(O)c4c3)C2)O1` [Example 209] the Ki [1] was 0.33 nM and the Ki [2] was 0.11 nM.
In the case of `O=C1Nc2ccc(Cl)c(F)c2[C@@]2(CCCN(C(=O)[C@H](CC3CC3)NC(=O)c3ccc4[nH]c(=O)[nH]c4c3)C2)O1` [Example 213], the Ki [1] is reported as 0.54 nM and the Ki [2] is reported as 10.4 nM.
`O=C1Nc2ccc(Cl)c(F)c2[C@@]2(CCCN(C(=O)[C@H](CC3CC3)NC(=O)c3ccc4[nH]nc(O)c4c3)C2)O1` [Example 214] was tested, and the Ki [1] was 1.4 nM and the Ki [2] was 0.7 nM.
Compound `O=C1Nc2ccc(Cl)c(F)c2[C@@]2(CCCN(C(=O)[C@H](CC3CC3)NC(=O)c3ccc4c(O)n[nH]c4c3)C2)O1` [Example 215] has a Ki [1] of 2.6 nM and a Ki [2] of 13.8 nM.
Compound `O=C1Nc2ccc(Cl)c(F)c2[C@@]2(CCCN(C(=O)[C@H](CC3CC3)NC(=O)c3cc4cc(O)ccc4[nH]3)C2)O1` [Example 216] has a Ki [1] of 1.7 nM and a Ki [2] of 37.6 nM.
`Nc1noc2cc(C(=O)N[C@@H](Cc3ccccc3)C(=O)N3CC[C@@]4(C3)OC(=O)Nc3ccc(Cl)cc34)ccc12` [Example 217] gave a Ki [1] of 3.2 nM and a Ki [2] of 2.3 nM.
With `Nc1n[nH]c2cc(C(=O)N[C@@H](Cc3ccccc3)C(=O)N3CCCC4(C3)OC(=O)Nc3ccc(Cl)c(F)c34)ccc12` (stereo partly drawn) [Example 225] the Ki [1] was 0.95 nM and the Ki [2] was 0.4 nM.
`COC(=O)n1nc(N)c2ccc(C(=O)N[C@@H](Cc3ccccc3)C(=O)N3CC[C@@]4(C3)OC(=O)Nc3ccc(Cl)cc34)cc21` [Example 226, Methyl 3-amino-6-(((S)-1-((R)-6-chloro-2-oxo-1,2-dihydrospiro[benzo[d][1,3]oxazine-4,3′-pyrrolidin]-1′-yl)-1-oxo-3-phenylpropan-2-yl)carbamoyl)-1H-indazole-1-carboxylate] was tested, and the Ki [1] was 23.2 nM and the Ki [2] was 18.1 nM.
For `COC(=O)Nc1n[nH]c2cc(C(=O)N[C@@H](Cc3ccccc3)C(=O)N3CC[C@@]4(C3)OC(=O)Nc3ccc(Cl)cc34)ccc12` [Example 227, methyl (6-(((S)-1-((R)-6-chloro-2-oxo-1,2-dihydrospiro[benzo[d][1,3]oxazine-4,3′-pyrrolidin]-1′-yl)-1-oxo-3-phenylpropan-2-yl)carbamoyl)-1H-indazol-3-yl)carbamate], the Ki [1] was 5 nM and the Ki [2] was 9 nM.
Compound `O=C1Nc2ccc(Cl)cc2[C@@]2(CCN(C(=O)[C@H](Cc3ccccc3)NC(=O)c3ccc4[nH]c(=O)[nH]c(=O)c4c3)C2)O1` [Example 228] has a Ki [1] of 19.3 nM and a Ki [2] of 17.1 nM.
`COCC(=O)Nc1ccc(C(=O)N[C@@H](Cc2ccccc2)C(=O)N2CCC[C@@]3(C2)OC(=O)Nc2ccc(Cl)c(F)c23)cc1` [Example 230, N-((S)-1-((R)-6-chloro-5-fluoro-2-oxo-1,2-dihydrospiro[benzo[d][1,3]oxazine-4,3′-piperidin]-1′-yl)-1-oxo-3-phenylpropan-2-yl)-4-(2-methoxyacetamido)benzamide] was tested, and the Ki [1] was 2.72 nM and the Ki [2] was 17.3 nM.
In the case of `CC(C)OC(=O)Nc1ccc(C(=O)N[C@@H](Cc2ccccc2)C(=O)N2CCC[C@@]3(C2)OC(=O)Nc2ccc(Cl)c(F)c23)cc1` [Example 231, isopropyl (4-(((S)-1-((R)-6-chloro-5-fluoro-2-oxo-1,2-dihydrospiro[benzo[d][1,3]oxazine-4,3′-piperidin]-1′-yl)-1-oxo-3-phenylpropan-2-yl)carbamoyl)phenyl)carbamate], the Ki [1] is reported as 4.74 nM and the Ki [2] is reported as 35.1 nM.
`O=C1Nc2ccc(Cl)c(F)c2[C@@]2(CCCN(C(=O)[C@H](Cc3ccccc3)NC(=O)c3ccc(B(O)O)s3)C2)O1` [Example 233] was tested, and the Ki [1] was 2.44 nM and the Ki [2] was 7.88 nM.
In the case of `COC(=O)Nc1cnc(C(=O)N[C@@H](Cc2ccccc2)C(=O)N2CCC[C@@]3(C2)OC(=O)Nc2ccc(Cl)c(F)c23)nc1` [Example 234], the Ki [1] is reported as 3.03 nM and the Ki [2] is reported as 16.9 nM.
Work on `O=C1Nc2ccc(Cl)c(F)c2[C@@]2(CCCN(C(=O)[C@H](Cc3ccccc3)NC(=O)c3ccc(-c4ncc[nH]4)s3)C2)O1` [Example 235] yielded a Ki [1] of 0.87 nM and a Ki [2] of 1.26 nM.
In the case of `O=C1Nc2ccc(Cl)c(F)c2[C@@]2(CCCN(C(=O)[C@H](CC3CC3)NC(=O)c3ccc(-c4ncc[nH]4)s3)C2)O1` [Example 237], the Ki [1] is reported as 0.96 nM and the Ki [2] is reported as 5.85 nM.
`CC(=O)Nc1ccc(C(=O)N[C@@H](Cc2ccccc2)C(=O)N2CCC[C@@]3(C2)OC(=O)Nc2ccc(Cl)c(F)c23)cc1` [Example 240, 4-acetamido-N-((S)-1-((R)-6-chloro-5-fluoro-2-oxo-1,2-dihydrospiro[benzo[d][1,3]oxazine-4,3′-piperidin]-1′-yl)-1-oxo-3-phenylpropan-2-yl)benzamide] showed a Ki [1] of 1.49 nM and a Ki [2] of 4.28 nM.
Compound `COC(=O)NCc1ccc(C(=O)N[C@@H](Cc2ccccc2)C(=O)N2CCC[C@@]3(C2)OC(=O)Nc2ccc(Cl)c(F)c23)cc1` [Example 241, methyl (4-(((S)-1-((R)-6-chloro-5-fluoro-2-oxo-1,2-dihydrospiro[benzo[d][1,3]oxazine-4,3′-piperidin]-1′-yl)-1-oxo-3-phenylpropan-2-yl)carbamoyl)benzyl)carbamate] has a Ki [1] of 2.13 nM and a Ki [2] of 53.9 nM.
In the case of `NC(=O)c1ccc(C(=O)N[C@@H](Cc2ccccc2)C(=O)N2CCC[C@@]3(C2)OC(=O)Nc2ccc(Cl)c(F)c23)s1` [Example 245], the Ki [1] is reported as 0.65 nM and the Ki [2] is reported as 0.97 nM.
